Experimental data reported in patent US8952024B2, “Herbicidal pyrimidone derivatives” (E I du Pont de Nemours and Company, priority 2009, dated 2015).

What was measured:
Type in all cases: in vivo
[1] = tested on: velvetleaf (Abutilon theophrasti); test: Test A pre-/postemergence plant response
From the text: (§1) Seeds of barnyardgrass (Echinochloa crus-galli), large crabgrass (Digitaria sanguinalis), giant foxtail (Setaria faberii), morningglory (Ipomoea spp.), pigweed (Amaranthus retroflexus), velvetleaf (Abutilon theophrasti), wheat (Triticum aestivum) and corn (Zea mays) were planted into a blend of loam soil and sand and treated preemergence with a directed soil spray using test chemicals formulated in a non-phytotoxic solvent mixture which included a surfactant. At the same time these species were also treated with postemergence applications of test compounds formulated in the same manner.
(§2) Plants ranged in height from two to ten cm and were in the one- to two-leaf stage for the postemergence treatment. Treated plants and untreated controls were maintained in a greenhouse for approximately ten days, after which time all treated plants were compared to untreated controls and visually evaluated for injury. Plant response ratings, summarized in Table A, are based on a 0 to 100 scale where 0 is no effect and 100 is complete control. A dash (-) response means no test result.

[2] = tested on: large crabgrass (Digitaria sanguinalis); test: Test A pre-/postemergence plant response
From the text: as §1, §2

[3] = tested on: morningglory (Ipomoea spp.); test: Test A pre-/postemergence plant response
From the text: as §1, §2

corn (Zea mays) = test: Test A pre-/postemergence plant response
From the text: as §1, §2

[4] = tested on: wheat (Triticum aestivum); test: Test A pre-/postemergence plant response
From the text: as §1, §2

[5] = tested on: giant foxtail (Setaria faberii); test: Test A pre-/postemergence plant response
From the text: as §1, §2

[6] = tested on: barnyardgrass (Echinochloa crus-galli); test: Test A pre-/postemergence plant response
From the text: as §1, §2

[7] = tested on: pigweed (Amaranthus retroflexus); test: Test A pre-/postemergence plant response
From the text: as §1, §2

[8] = tested on: umbrella sedge (Cyperus difformis); test: Test B flooded paddy test; conditions: for Plant response rating, Flood, Sedge, Umbrella: 250 g ai/ha, flooded paddy test, visual rating on 0 to 100 scale (0 no effect, 100 complete control) after 13 to 15 days; for Plant response rating, Sedge, Umbrella: Flood (flooded paddy test), 13 to 15 days
From the text: (§3) Plant species in the flooded paddy test consisted of rice (Oryza sativa), umbrella sedge (Cyperus difformis), ducksalad (Heteranthera limosa) and barnyardgrass (Echinochloa crus-galli) grown to the 2-leaf stage for testing. At the time of treatment, test pots were flooded with water to 3 cm above the soil surface, treated by application of test compounds directly to the paddy water, and then maintained at that water depth for the duration of the test.
(§4) Treated plants and controls were maintained in a greenhouse for 13 to 15 days, after which time all treated plants were visually evaluated and compared to controls. Plant response ratings, summarized in Table B, are based on a scale of 0 to 100 where 0 is no effect and 100 is complete control. A dash (-) response means no test result.

rice (Oryza sativa) = test: Test B flooded paddy test; conditions: for Plant response rating, Rice: Flood (flooded paddy test), 13 to 15 days
From the text: as §3, §4

[9] = tested on: barnyardgrass (Echinochloa crus-galli); test: Test B flooded paddy test; conditions: for Plant response rating, Flood, Barnyardgrass: 250 g ai/ha, flooded paddy test, visual rating on 0 to 100 scale (0 no effect, 100 complete control) after 13 to 15 days; for Plant response rating, Barnyardgrass: Flood (flooded paddy test), 13 to 15 days
From the text: as §3, §4

[10] = tested on: ducksalad (Heteranthera limosa); test: Test B flooded paddy test; conditions: for Plant response rating, Flood, Ducksalad: 250 g ai/ha, flooded paddy test, visual rating on 0 to 100 scale (0 no effect, 100 complete control) after 13 to 15 days; for Plant response rating, Ducksalad: Flood (flooded paddy test), 13 to 15 days
From the text: as §3, §4

[11] = Postemergence, 125 g ai/ha, visual injury, 0 to 100 scale (0 no effect, 100 complete control), approx. ten days
[12] = Postemergence, 500 g ai/ha, 0 to 100 scale, 0 = no effect, 100 = complete control, approx. ten days
[13] = Preemergence, 125 g ai/ha, 0 to 100 scale, 0 = no effect, 100 = complete control
[14] = Preemergence, 500 g ai/ha, visual injury, 0 to 100 scale (0 no effect, 100 complete control), approx. ten days
[15] = 31 g ai/ha, scale of 0 to 100 where 0 is no effect and 100 is complete control
[16] = 62 g ai/ha, scale 0 to 100, 0 is no effect, 100 is complete control
[17] = 125 g ai/ha, scale 0 to 100, 0 is no effect, 100 is complete control
[18] = Postemergence, 125 g ai/ha, 0 to 100 scale where 0 is no effect and 100 is complete control
[19] = Postemergence, 500 g ai/ha, visual injury, 0 to 100 scale (0 no effect, 100 complete control), approx. ten days
[20] = Preemergence, 500 g ai/ha, 0 to 100 scale, 0 = no effect, 100 = complete control
[21] = 62 g ai/ha, scale of 0 to 100 where 0 is no effect and 100 is complete control

O=C1CCCC(O)=C1C(=O)c1cnc(-c2ccccc2Cl)n(-c2ccccc2)c1=O [Compound 35]
Velvetleaf plant response rating [1, 11]: 100
Plant response rating, Velvetleaf [1, 12]: 100
Plant response rating, Velvetleaf [1, 13]: 0
Plant response rating, Velvetleaf [1, 14]: 70
Crabgrass, Large plant response rating [2, 11]: 50
Plant response rating, Crabgrass, Large [2, 12]: 80
Plant response rating, Crabgrass, Large [2, 13]: 10
Plant response rating, Crabgrass, Large [2, 14]: 60
Plant response rating, Morningglory [3, 12]: 80
Plant response rating, Morningglory [3, 14]: 20
Corn plant response rating (corn (Zea mays); [11]): 0
Plant response rating, Corn (corn (Zea mays); [12]): 10
Plant response rating, Corn (corn (Zea mays); [13]): 0
Plant response rating, Corn (corn (Zea mays); [14]): 0
Wheat plant response rating [4, 11]: 0
Plant response rating, Wheat [4, 12]: 0
Plant response rating, Wheat [4, 13]: 0
Plant response rating, Wheat [4, 14]: 0
Foxtail, Giant plant response rating [5, 11]: 40
Plant response rating, Foxtail, Giant [5, 12]: 80
Plant response rating, Foxtail, Giant [5, 13]: 0
Plant response rating, Foxtail, Giant [5, 14]: 10
Barnyardgrass plant response rating [6, 11]: 10
Plant response rating, Barnyardgrass [6, 12]: 60
Plant response rating, Barnyardgrass [6, 13]: 0
Plant response rating, Barnyardgrass [6, 14]: 0
Pigweed plant response rating [7, 11]: 80
Plant response rating, Pigweed [7, 12]: 100
Plant response rating, Pigweed [7, 13]: 10
Plant response rating, Pigweed [7, 14]: 100
Plant response rating, Flood, Sedge, Umbrella [8]: 0
Plant response rating, Sedge, Umbrella [8, 15]: 0
Plant response rating, Sedge, Umbrella [8, 16]: 0
Plant response rating, Sedge, Umbrella [8, 17]: 0
Plant response rating, Rice (rice (Oryza sativa); [15]): 0
Plant response rating, Rice (rice (Oryza sativa); [16]): 0
Plant response rating, Rice (rice (Oryza sativa); [17]): 0
Plant response rating, Flood, Barnyardgrass [9]: 0
Plant response rating, Barnyardgrass [9, 15]: 0
Plant response rating, Barnyardgrass [9, 16]: 0
Plant response rating, Barnyardgrass [9, 17]: 0
Plant response rating, Flood, Ducksalad [10]: 0
Plant response rating, Ducksalad [10, 15]: 0
Plant response rating, Ducksalad [10, 16]: 0
Plant response rating, Ducksalad [10, 17]: 0

Cc1ccc(C)c(-n2c(-c3ccccc3)ncc(C(=O)c3cnoc3C3CC3)c2=O)c1 [Compound 222]
Plant response rating, Velvetleaf [1, 18]: 60
Velvetleaf plant response rating [1, 19]: 90
Plant response rating, Velvetleaf [1, 13]: 0
Plant response rating, Velvetleaf [1, 20]: 60
Plant response rating, Crabgrass, Large [2, 18]: 0
Crabgrass, Large plant response rating [2, 19]: 30
Plant response rating, Crabgrass, Large [2, 13]: 20
Plant response rating, Crabgrass, Large [2, 20]: 20
Plant response rating, Morningglory [3, 18]: 30
Morningglory plant response rating [3, 19]: 40
Plant response rating, Morningglory [3, 13]: 0
Plant response rating, Morningglory [3, 20]: 40
Plant response rating, Corn (corn (Zea mays); [18]): 0
Corn plant response rating (corn (Zea mays); [19]): 0
Plant response rating, Corn (corn (Zea mays); [13]): 0
Plant response rating, Corn (corn (Zea mays); [20]): 0
Plant response rating, Wheat [4, 18]: 0
Wheat plant response rating [4, 19]: 0
Plant response rating, Wheat [4, 13]: 0
Plant response rating, Wheat [4, 20]: 0
Plant response rating, Foxtail, Giant [5, 18]: 0
Foxtail, Giant plant response rating [5, 19]: 40
Plant response rating, Foxtail, Giant [5, 13]: 30
Plant response rating, Foxtail, Giant [5, 20]: 60
Plant response rating, Barnyardgrass [6, 18]: 10
Barnyardgrass plant response rating [6, 19]: 80
Plant response rating, Barnyardgrass [6, 13]: 0
Plant response rating, Barnyardgrass [6, 20]: 60
Plant response rating, Pigweed [7, 18]: 40
Pigweed plant response rating [7, 19]: 70
Plant response rating, Pigweed [7, 13]: 0
Plant response rating, Pigweed [7, 20]: 0
Plant response rating, Flood, Sedge, Umbrella [8]: 40
Plant response rating, Sedge, Umbrella [8, 21]: 30
Plant response rating, Flood, Rice (rice (Oryza sativa); 250 g ai/ha, flooded paddy test, visual rating on 0 to 100 scale (0 no effect, 100 complete control) after 13 to 15 days): 0
Plant response rating, Rice (rice (Oryza sativa); [21]): 0
Plant response rating, Flood, Barnyardgrass [9]: 0
Plant response rating, Barnyardgrass [9, 21]: 0
Plant response rating, Flood, Ducksalad [10]: 65
Plant response rating, Ducksalad [10, 21]: 50
